Active and inactive are the calls of the source. The calls are words filed in the database; no cut-off is given here.
How the values were obtained:
[1] = biological target: T1, Amiloride-sensitive sodium channel, ENaC (Homo sapiens) (UniProt P37088+P51168+P51170); test: Inhibition of human ENaC alpha-beta-gamma expressed in Xenopus laevis oocytes assessed as effect on transmembrane currents at 1 mM by two-electrode voltage-clamp technique; assay type: cell-based; settings: Oocyte
[2] = biological target: T1, Amiloride-sensitive sodium channel, ENaC (Homo sapiens); test: Inhibition of human ENaC alpha-beta-gamma expressed in Xenopus laevis oocytes assessed as effect on transmembrane currents at 100 uM by two-electrode voltage-clamp technique; assay type: cell-based; settings: Oocyte

| inhibition [1] | inhibition [2] | Compound |
| --- | --- | --- |
| inactive |  | C=CC[S@+]([O-])C[C@H](N)C(=O)O |
| inactive |  | C=CCSC[C@H](N)C(=O)O |

The remaining lines, values behind:

| Compound | inhibition [1] | inhibition [2] |
| --- | --- | --- |
| C=CCSSCC=C | inactive |  |
| C=CCSCC=C | inactive |  |
| C=CCS[S+]([O-])CC=C (stereo unspecified) |  | 77% |
| C=CCSSSCC=C | inactive |  |

— ChEMBL document CHEMBL2046308, “Thiol-reactive compounds from garlic inhibit the epithelial sodium channel (ENaC)” (Bioorg Med Chem, 2012)
